By IC50 is commonly meant the concentration that inhibits the measured activity by half.

This test addresses hP2X3 (human purinergic P2X receptor subtype 3) (Homo sapiens (Human), UniProt P56373). Kind of test: FLIPR calcium assay, hP2X3 expressed in HEK293 cells. To be noted: read-out: P2X3 IC50. It counts as cell-based.
The mark [1] stands for this setting: HEK293 cells expressing hP2X3, agonist BZ-ATP 2.5 μM, class symbols.

Read-outs that look alike come from different tables or passages of the source.

Sequence of hP2X3 (human purinergic P2X receptor subtype 3) (P56373 whole entry): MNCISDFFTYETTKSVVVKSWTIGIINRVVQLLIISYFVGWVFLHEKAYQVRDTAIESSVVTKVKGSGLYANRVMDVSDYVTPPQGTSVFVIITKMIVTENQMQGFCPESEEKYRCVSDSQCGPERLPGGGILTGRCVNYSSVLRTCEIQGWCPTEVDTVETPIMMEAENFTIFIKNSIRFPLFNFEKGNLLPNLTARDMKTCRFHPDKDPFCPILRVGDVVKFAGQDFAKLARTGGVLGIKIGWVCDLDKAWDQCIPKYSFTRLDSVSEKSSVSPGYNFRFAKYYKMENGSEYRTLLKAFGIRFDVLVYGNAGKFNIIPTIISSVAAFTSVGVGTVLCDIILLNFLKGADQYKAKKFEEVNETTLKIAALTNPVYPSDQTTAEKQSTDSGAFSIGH

With `COC(=O)N1CCO[C@@H](Cc2c(-c3c(F)cc(C4(N)COC4)cc3F)nc3cc(C)ccn23)C1` [Compound 70], the IC50 is 10 to 50 nM.

For “(S,E)-4-((3,5-difluoro-4-(3-((4-(methoxycarbonyl)-morpholin-2-yl)-methyl)-7-methylimidazo[1,2-a]pyri din-2-yl)-phenyl)-amino)-4-oxobutyl-2-enoic acid [Compound 27]”, the IC50 was under 10 nM.

For the compound `COC(=O)N1CCO[C@@H](Cc2c(-c3c(F)cc(-c4ccon4)cc3F)nc3cc(C)ccn23)C1` [Compound 16, methyl (S)-2-((2-(2,6-difluoro-4-(isoxazol-3-yl)phenyl)-7-methylimidazo[1,2-a]pyridin-3-yl)methyl)morpholine-4-carboxylate], the 50% inhibitory concentration (IC50) was in the range of 10 to 50 nM.

Take `CNC(=O)c1coc(-c2nc3cc(C)ccn3c2C[C@H]2CN(C(=O)OC)CCO2)c1F` [Compound 22]: the IC50 under setting [1] lay in the range of 200 to 5000 nM.

For the compound `COC(=O)N1CCO[C@@H](Cc2c(-c3c(F)cc(-n4cnc(C5(C(=O)O)CC5)c4)cc3F)nc3cc(C)ccn23)C1` [Compound 113], under setting [1], the IC50 was 200 to 5000 nM.

As to `COC(=O)N1CCO[C@@H](Cc2c(-c3c(F)cc(-n4ccoc4=O)cc3F)nc3cc(C)ccn23)C1` [Compound 99], the IC50 fell in the range of 10 to 50 nM.

Consider `COC(=O)N1CCO[C@@H](Cc2c(-c3c(F)cc(NC(=O)CCC(C)(C)O)cc3F)nc3cc(C)ccn23)C1` [Compound 93], for which the IC50 was in the range of 10 to 50 nM.

As for `COC(=O)N1CCO[C@@H](Cc2c(-c3c(F)cc(N4CCCC4=O)cc3F)nc3cc(C)ccn23)C1` [Compound 101], the IC50 was 10 to 50 nM.

In the case of `COC(=O)N1CCO[C@@H](Cc2c(-c3c(F)cc(NS(C)(=O)=O)cc3F)nc3cc(C)ccn23)C1` [Compound 152], the half-maximal inhibitory concentration (IC50) was under 10 nM.

For `COC(=O)N1CCO[C@@H](Cc2c(-c3c(F)cc(-n4nccc4C#N)cc3F)nc3cc(C)ccn23)C1` [Compound 124-2], under setting [1], the 50% inhibitory concentration (IC50) was at most 10 nM.

Take `COC(=O)N1CCO[C@@H](Cc2c(-c3c(F)cc(NC(C)=O)cc3F)nc3cc(CF)ccn23)C1` [Compound 150, methyl (S)-2-((2-(4-acetamido-2,6-difluorophenyl)-7-(fluoromethyl)imidazo[1,2-a]pyridin-3-yl)methyl)morpholine-4-carboxylate]: the IC50 was under 10 nM.

Regarding `COC(=O)N1CCO[C@@H](Cc2c(-c3c(F)cc(NCCCC(N)=O)cc3F)nc3cc(C)ccn23)C1` [Compound 77], the IC50 is under 10 nM.

Turning to `COC(=O)N1CCO[C@@H](Cc2c(-c3c(F)cc(-c4nccn4C)cc3F)nc3cc(C)ccn23)C1` [Compound 9, methyl (S)-2-((2-(2,6-difluoro-4-(1-methyl-1H-imidazol-2-yl)phenyl)-7-methylimidazo[1,2-a]pyridin-3-yl)methyl)morpholine-4-carboxylate], under setting [1], the IC50 lay within 200 to 5000 nM.

As to `CNC(=O)c1ccc(-c2nc3cc(C)ccn3c2C[C@H]2CN(C(=O)OC)CCO2)s1` [Compound 21, methyl (S)-2-((7-methyl-2-(5-(methylcarbamoyl)thiophen-2-yl)imidazo[1,2-a]pyridin-3-yl)methyl)morpholine-4-carboxylate], the 50% inhibitory concentration (IC50) under setting [1] fell in the range of 200 to 5000 nM.

Regarding `COC(=O)N1CCO[C@@H](Cc2c(-c3c(F)cc(-n4ccnc4)cc3F)nc3cc(F)ccn23)C1` [Compound 132], the IC50 was under 10 nM.

In the case of `CNC(=O)c1cc(F)c(-c2nc3cc(C)ncn3c2C[C@H]2CN(C(=O)OC)CCO2)c(F)c1` [Compound 42, methyl (S)-2-((2-(2,6-difluoro-4-(methylcarbamoyl)phenyl)-7-methylimidazo[1,2-c]pyrimidin-3-yl)methyl)morpholine-4-carboxylate], the concentration for half-maximal inhibition (IC50) is under 10 nM.

On to `CNC(=O)c1ccnc(Cc2c(-c3c(F)cc(S(N)(=O)=O)cc3F)nc3cc(C)ccn23)c1` [Compound 185], for which the IC50 stood at 13 nM.

For the compound `CNC1(c2cc(F)c(-c3nc4cc(C)ccn4c3C[C@H]3CN(C(=O)OC)CCO3)c(F)c2)CC1` [Compound 67, methyl (S)-2-((2-(2,6-difluoro-4-(1-(methylamino)cyclopropyl)phenyl)-7-methylimidazo[1,2-a]pyridin-3-yl)methyl) morpholine-4-carboxylate], the IC50 was in the range of 10 to 50 nM.

`CNC(=O)c1csc(-c2nc3cc(C)ccn3c2C[C@H]2CN(C(=O)OC)CCO2)c1F` [Compound 23]: the concentration for half-maximal inhibition (IC50) under setting [1] lay within 200 to 5000 nM.

Consider `COC(=O)N1CCO[C@@H](Cc2c(-c3c(F)cc(-c4nc(C5(O)CC5)c[nH]4)cc3F)nc3cc(C)ccn23)C1` [Compound 116], for which the IC50 was in the range of 10 to 50 nM.

Consider `COC(=O)N1CCO[C@@H](Cc2c(-c3c(F)cc(-c4nc(Cl)c[nH]4)cc3F)nc3cc(C)ccn23)C1` [Compound 34, methyl (S)-2-((2-(4-(4-chloro-1H-imidazol-2-yl)-2,6-difluorophenyl)-7-methylimidazo[1,2-a]pyridin-3-yl)methyl)morpholine-4-carboxylate], for which the half-inhibitory concentration (IC50) was under 10 nM.

As for `COC(=O)N1CCO[C@@H](Cc2c(-c3c(F)cc(NC(=O)CC(C)(C)O)cc3F)nc3cc(C)ccn23)C1` [Compound 90], the 50% inhibitory concentration (IC50) fell in the range of 10 to 50 nM.

`COC(=O)N1CCO[C@@H](Cc2c(-c3c(F)cc(-n4ccnn4)cc3F)nc3cc(C)ccn23)C1` [Compound 141, methyl (S)-2-((2-(2,6-difluoro-4-(1H-1,2,3-triazol-1-yl)phenyl)-7-methylimidazo[1,2-a]pyridin-3-yl)methyl)morpholine-4-carboxylate]: the 50% inhibitory concentration (IC50) fell in the range of 10 to 50 nM.

With `COC(=O)N1CCO[C@@H](Cc2c(-c3c(F)cc(NC(=O)c4ccccc4)cc3F)nc3cc(C)ccn23)C1` [Compound 84], the half-maximal inhibitory concentration (IC50) was in the range of 50 to 200 nM.

For `COC(=O)N1CCO[C@@H](Cc2c(-c3c(F)cc(-n4cnc(N)c4)cc3F)nc3cc(C)ccn23)C1` [Compound 111], the IC50 fell in the range of 10 to 50 nM.

As to `COC(=O)N1CCO[C@@H](Cc2c(-c3c(F)cc(-n4cnnc4)cc3F)nc3cc(C)ccn23)C1` [Compound 143, methyl (S)-2-((2-(2,6-difluoro-4-(4H-1,2,4-triazol-4-yl)phenyl)-7-methylimidazo[1,2-a]pyridin-3-yl)methyl)morpholine-4-carboxylate], the half-maximal inhibitory concentration (IC50) is under 10 nM.

Turning to `COC(=O)N1CCO[C@@H](Cc2c(-c3c(F)cc(-c4ncco4)cc3F)nc3cc(F)ccn23)C1` [Compound 122], the half-maximal inhibitory concentration (IC50) under setting [1] is 200 to 5000 nM.

Consider `CNS(=O)(=O)c1cc(F)c(-c2nc3cc(C)ccn3c2C[C@H]2CN(C(=O)OC)CCO2)c(F)c1` [Compound 43, methyl (S)-2-((2-(2,6-difluoro-4-(N-methylsulfamoyl)phenyl)-7-methylimidazo[1,2-a]pyridin-3-yl)methyl)morpholine-4-carboxylate], for which the half-inhibitory concentration (IC50) was under 10 nM.

As for `COC(=O)N1CCO[C@@H](Cc2c(-c3c(F)cc(NC(=O)c4ccc(C(=O)O)cc4)cc3F)nc3cc(C)ccn23)C1` [Compound 85, (S)-4-((3,5-difluoro-4-(3-((4-(carbomethoxy<methoxycarbonyl>)morpholin-2-yl)methyl)-7-methylimidazo[1,2-a]pyridin-2-yl)phenyl)carbamoyl)benzoic acid], the IC50 lay in the range of 50 to 200 nM.

As for `COC(=O)N1CCO[C@@H](Cc2c(-c3c(F)cc(-n4ccc(C(C)(C)O)c4)cc3F)nc3cc(C)ccn23)C1` [Compound 135], the 50% inhibitory concentration (IC50) was under 10 nM.

On to `COC(=O)N1CCO[C@@H](Cc2c(-c3c(F)cc(-n4ccc(C#N)c4)cc3F)nc3cc(C)ccn23)C1` [Compound 137], for which the IC50 fell in the range of 10 to 50 nM.

With `CCC(=O)N1CCO[C@@H](Cc2c(-c3c(F)cc(-c4ccc(C#N)s4)cc3F)nc3cc(C)ccn23)C1` [Compound 140, (S)-5-(3,5-difluoro-4-(7-methyl-3-((4-propionylmorpholin-2-yl)methyl)imidazo[1,2-a]pyridin-2-yl)phenyl)thiophene-2-carbonitrile], the half-inhibitory concentration (IC50) lay in the range of 50 to 200 nM.

For the compound `COC(=O)N1CCO[C@@H](Cc2c(-c3c(F)cc(-c4nc(C5(O)CC5)co4)cc3F)nc3cc(C)ccn23)C1` [Compound 118], the half-inhibitory concentration (IC50) under setting [1] was 200 to 5000 nM.

Turning to `COC(=O)N1CCO[C@@H](Cc2c(-c3c(F)cc(-n4ccc(C(=O)O)n4)cc3F)nc3cc(C)ccn23)C1` [Compound 125, (S)-1-(3,5-difluoro-4-(3-((4-(methoxycarbonyl)morpholin-2-yl)methyl)-7-methylimidazo[1,2-a]pyridin-2-yl)phenyl)-1H-pyrazole-3-carboxylic acid], the IC50 was under 10 nM.

For the compound `COC(=O)N1CCO[C@@H](Cc2c(-c3c(F)cc(NC(=O)CC(C)C(N)=O)cc3F)nc3cc(C)ccn23)C1` (stereo partly drawn) [Compound 170], the 50% inhibitory concentration (IC50) is 50 to 200 nM.

Consider `COC(=O)N1CCO[C@@H](Cc2c(-c3c(F)cc(-n4cnc(C(C)(C)O)c4)cc3F)nc3cc(C)ccn23)C1` [Compound 117, methyl (S)-2-((2-(2,6-difluoro-4-(4-(2-hydroxypropan-2-yl)-1H-imidazol-1-yl)phenyl)-7-methylimidazo[1,2-a]pyridin-3-yl)methyl)morpholine-4-carboxylate], for which the IC50 was in the range of 10 to 50 nM.

Take `CNC(=O)c1cc(F)c(-c2nc3cc(C)ccn3c2CN2CCN(C(=O)OC)CC2)c(F)c1` [Compound 32]: the IC50 under setting [1] lay within 200 to 5000 nM.

Turning to `CNC(=N)c1cc(F)c(-c2nc3cc(C)ccn3c2C[C@H]2CN(C(=O)OC)CCO2)c(F)c1` [Compound 8, methyl (S)-2-((2-(2,6-difluoro-4-(N-methylcarbamimidoyl)phenyl)-7-methylimidazo[1,2-a]pyridin-3-yl)methyl)morpholine-4-carboxylate], the IC50 under setting [1] was 200 to 5000 nM.

As for `COC(=O)N1CCO[C@@H](Cc2c(-c3c(F)cc(-n4ccc(C5(O)CC5)n4)cc3F)nc3cc(C)ccn23)C1` [Compound 131], the 50% inhibitory concentration (IC50) is 10 to 50 nM.

Turning to `CNC(=O)c1cc(F)c(C2=CC3C=C(C)C=CN3N2C[C@H]2CN(C(=O)OC)CCO2)c(F)c1` (stereo partly drawn) [Compound 41], the IC50 under setting [1] lay in the range of 200 to 5000 nM.

As for `CCOC(=O)N1CCO[C@@H](Cc2c(C(=O)Nc3cc(F)cc(F)c3)nc3cc(C)ccn23)C1` [Compound 20], the IC50 under setting [1] was in the range of 200 to 5000 nM.

Turning to `COC(=O)N1CCO[C@@H](Cc2c(-c3c(F)cc(C(C)=O)cc3F)nc3cc(C)ccn23)C1` [Compound 14, methyl (S)-2-((2-(4-acetyl-2,6-difluorophenyl)-7-methylimidazo[1,2-a]pyridin-3-yl)methyl)morpholine-4-carboxylate], under setting [1], the half-inhibitory concentration (IC50) was 200 to 5000 nM.

The values are drawn from patent US20240034729A9, “HETEROCYCLIC COMPOUND, INTERMEDIATE, PREPARATION METHOD THEREFOR AND APPLICATION THEREOF” (WUHAN LL SCIENCE AND TECHNOLOGY DEVELOPMENT CO., LTD., priority 2018, published 2024).
